Reference: ChEMBL document CHEMBL1155634, “New butenolides from two marine streptomycetes” (J Nat Prod, 2000)
Active and inactive are the calls of the source. The rule behind the calls is not given here.

Legend:
Type in all cases: functional, organism-based
[1] = tested on: Escherichia coli; assay: Antibacterial activity against Escherichia coli
[2] = tested on: Staphylococcus aureus; assay: Antibacterial activity against Staphylococcus aureus
[3] = tested on: Candida albicans; assay: Antifungal activity against Candida albicans
[4] = tested on: Rhizomucor miehei; assay: Antifungal activity against Mucor miehei Tu284
[5] = tested on: Streptomyces viridochromogenes; assay: Antibacterial activity against Streptomyces viridochromogenes Tu57
[6] = tested on: Streptomyces viridochromogenes; assay: Antibacterial activity against Streptomyces viridochromogenes Tu57 assessed as inhibition of spore formation

SMILES | Activity [1] | Activity [2] | Activity [3] | Activity [4] | Activity [5] | Activity [6]
CC(=O)C(C)CCCCC[C@H]1C=CC(=O)O1 (some centres undefined) | inactive | inactive | inactive | inactive | inactive | inactive
CC(O)C(C)CCCCC[C@H]1C=CC(=O)O1 (stereo in doubt; 3) | – | – | – | – | – | inactive
CC(O)C(C)CCCCC[C@H]1C=CC(=O)O1 (stereo in doubt; 2) | – | – | – | – | – | inactive
CCC(C)(O)CCCCC[C@H]1C=CC(=O)O1 (some centres undefined) | – | – | – | – | – | inactive
